Assay results from ChEMBL document CHEMBL1201862, “PubChem BioAssay data set” (2004).
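A five-concentration, 48-hour dose response in 96-well plates underlies each endpoint, interpolated linearly between surrounding concentrations. At the GI50, growth is halved.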 Active and inactive are the calls of the source. Cut-off read from the data, not from the text of the source: active = GI50 up to about 1.1 µM and inactive = higher.

How the values were obtained:
Test in all cases: inhibition of tumour cell growth, NCI panel, 48 h
786-0 = test system: 786-0
A498 = test system: A498
ACHN = test system: ACHN
CAKI-1 = test system: CAKI-1
COLO 205 = test system: COLO 205
DMS-114 = test system: DMS-114
DMS-273 = test system: DMS-273
EKVX = test system: EKVX
HCC 2998 = test system: HCC 2998
HCT-116 = test system: HCT-116
HCT-15 = test system: HCT-15
HOP-18 = test system: HOP-18
HOP-62 = test system: HOP-62
HOP-92 = test system: HOP-92
HT-29 = test system: HT-29
IGROV-1 = test system: IGROV-1
K562 = test system: K562
KM-20L2 = test system: KM-20L2
KM12 = test system: KM12
LOX IMVI = test system: LOX IMVI
LXFL 529 = test system: LXFL 529
M14 = test system: M14
M19-MEL = test system: M19-MEL
Malme-3M = test system: Malme-3M
NCI-H226 = test system: NCI-H226
NCI-H23 = test system: NCI-H23
NCI-H460 = test system: NCI-H460
NCI-H522 = test system: NCI-H522
OVCAR-3 = test system: OVCAR-3
OVCAR-4 = test system: OVCAR-4
OVCAR-5 = test system: OVCAR-5
OVCAR-8 = test system: OVCAR-8
RPMI-8226 = test system: RPMI-8226
RXF 393 = test system: RXF 393
RXF 631 = test system: RXF 631
SF-268 = test system: SF-268
SF-295 = test system: SF-295
SF-539 = test system: SF-539
SK-MEL-28 = test system: SK-MEL-28
SK-MEL-2 = test system: SK-MEL-2
SK-MEL-5 = test system: SK-MEL-5
SK-OV-3 = test system: SK-OV-3
SN12C = test system: SN12C
SNB-19 = test system: SNB-19
SNB-75 = test system: SNB-75
SW-620 = test system: SW-620
TK-10 = test system: TK-10
U-251 = test system: U-251
UACC-257 = test system: UACC-257
UACC-62 = test system: UACC-62
UO-31 = test system: UO-31
XF498 = test system: XF498
A549 = test system: A549
CCRF-CEM = test system: CCRF-CEM
DLD-1 = test system: DLD-1
HL-60 = test system: HL-60
MOLT-4 = test system: MOLT-4
SNB-78 = test system: SNB-78
SR = test system: SR

Measured: GI50

CC(=O)C1C(=O)C(=O)N(CCN2C(=O)C(=O)C(C(C)=O)C2=O)C1=O (stereo unspecified)
inactive: 786-0 > 100 µM | A498 > 100 µM | ACHN > 100 µM | CAKI-1 > 100 µM | COLO 205 > 100 µM | DMS-114 > 100 µM | DMS-273 > 100 µM | EKVX > 100 µM | HCC 2998 > 100 µM | HCT-116 > 100 µM | HOP-18 > 100 µM | HOP-62 > 100 µM | HOP-92 > 100 µM | HT-29 > 100 µM | IGROV-1 > 100 µM | K562 > 100 µM | KM-20L2 > 100 µM | KM12 > 100 µM | LOX IMVI > 100 µM | LXFL 529 > 100 µM | M14 > 100 µM | M19-MEL > 100 µM | Malme-3M > 100 µM | NCI-H226 > 100 µM | NCI-H23 > 100 µM | NCI-H460 > 100 µM | NCI-H522 > 100 µM | OVCAR-3 > 100 µM | OVCAR-4 > 100 µM | OVCAR-5 > 100 µM | OVCAR-8 > 100 µM | RPMI-8226 > 100 µM | RXF 393 > 100 µM | RXF 631 > 100 µM | SF-268 > 100 µM | SF-295 > 100 µM | SF-539 > 100 µM | SK-MEL-28 > 100 µM | SK-MEL-2 > 100 µM | SK-MEL-5 > 100 µM | SK-OV-3 > 100 µM | SN12C > 100 µM | SNB-19 > 100 µM | SNB-75 > 100 µM | SW-620 > 100 µM | TK-10 > 100 µM | U-251 > 100 µM | UACC-257 > 100 µM | UACC-62 > 100 µM | UO-31 > 100 µM | XF498 > 100 µM
> 100 µM: HCT-15

COc1ccc2c(c1)CCCN2CCCCCCCCCCN(CCC(C)C)CCC(C)C
inactive: 786-0 14.2 µM | A498 16.7 µM | A549 11.7 µM | ACHN 10.9 µM | CAKI-1 14.7 µM | CCRF-CEM 7.29 µM | COLO 205 12.1 µM | DLD-1 10.5 µM | DMS-114 4.97 µM | DMS-273 10.1 µM | EKVX 6.44 µM | HCC 2998 6.98 µM | HL-60 2.9 µM | HOP-18 12.1 µM | HOP-62 13.1 µM | HOP-92 4.34 µM | HT-29 4.65 µM | IGROV-1 12.2 µM | K562 4.24 µM | KM-20L2 10.2 µM | KM12 4.55 µM | LOX IMVI 12.4 µM | LXFL 529 10.2 µM | M14 13.3 µM | M19-MEL 15.3 µM | MOLT-4 5.58 µM | Malme-3M 13.4 µM | NCI-H226 14 µM | NCI-H23 3.25 µM | NCI-H460 11.2 µM | NCI-H522 2.2 µM | OVCAR-3 4.79 µM | OVCAR-4 5.61 µM | OVCAR-5 14.9 µM | RPMI-8226 2.26 µM | RXF 631 8.87 µM | SF-268 11.6 µM | SF-295 14.1 µM | SF-539 3.39 µM | SK-MEL-28 13.6 µM | SK-MEL-2 9.4 µM | SK-MEL-5 6.46 µM | SK-OV-3 19.3 µM | SNB-19 13.9 µM | SNB-78 16.8 µM | SW-620 12.6 µM | TK-10 16.4 µM | U-251 13.2 µM | UACC-257 14.9 µM | UACC-62 12.2 µM | UO-31 3.11 µM | XF498 7.89 µM
8.34 µM: HCT-15

N#CC1CCCCOCCOCCOCCOCCOCCCCCC1=O (stereo unspecified)
inactive: 786-0 > 100 µM | A498 > 100 µM | A549 > 100 µM | ACHN > 100 µM | CAKI-1 > 100 µM | CCRF-CEM > 100 µM | COLO 205 > 100 µM | DLD-1 > 100 µM | DMS-114 > 100 µM | DMS-273 > 100 µM | EKVX > 100 µM | HCC 2998 > 100 µM | HCT-116 > 100 µM | HL-60 > 100 µM | HOP-18 > 100 µM | HOP-62 > 100 µM | HT-29 > 100 µM | IGROV-1 > 100 µM | K562 > 100 µM | KM-20L2 > 100 µM | KM12 > 100 µM | LOX IMVI > 100 µM | LXFL 529 > 100 µM | M14 > 100 µM | M19-MEL > 100 µM | MOLT-4 > 100 µM | Malme-3M > 100 µM | NCI-H226 > 100 µM | NCI-H23 > 100 µM | NCI-H460 > 100 µM | NCI-H522 > 100 µM | OVCAR-3 > 100 µM | OVCAR-4 > 100 µM | OVCAR-5 > 100 µM | OVCAR-8 > 100 µM | RPMI-8226 > 100 µM | RXF 393 > 100 µM | RXF 631 > 100 µM | SF-268 > 100 µM | SF-295 > 100 µM | SK-MEL-28 > 100 µM | SK-MEL-2 > 100 µM | SK-MEL-5 > 100 µM | SK-OV-3 > 100 µM | SN12C > 100 µM | SNB-19 > 100 µM | SNB-75 > 100 µM | SNB-78 > 100 µM | SR > 100 µM | SW-620 > 100 µM | TK-10 > 100 µM | U-251 > 100 µM | UACC-257 > 100 µM | UACC-62 > 100 µM | UO-31 > 100 µM
> 100 µM: HCT-15
